Two compounds from ChEMBL document CHEMBL5465560, “Selectivity Literature for EUbOPEN Chemogenomic Library” (2024) can be followed below.

Assay [1] has as its target Voltage-dependent P/Q-type calcium channel subunit alpha-1A (Homo sapiens, UniProt O00555). As to the kind of experiment: Selectivity interaction (BET inhibitor selectivity panel (Human blocker intracellular Ca2+ fluorescence assay)) EUB0000102c CACNA1A. In kind it is cell-based.
Assay [2] deals with Voltage-gated inwardly rectifying potassium channel KCNH3 (Homo sapiens, UniProt Q9ULD8). As to the kind of experiment: Selectivity interaction (BET inhibitor selectivity panel (Human FP binding assay)) EUB0000102c KCNH3.
Assay [3] concerns the target Substance-K receptor (Homo sapiens) (UniProt P21452). The assay is described as follows: Selectivity interaction (CEREP panel (GPCRs, ion channels, and transporters)) EUB0000102c TACR2. The conditions noted are these: at 10 µM.
The target of assay [4] is 5-hydroxytryptamine receptor 3A (Homo sapiens, UniProt P46098). As to the kind of experiment: Selectivity interaction (BET inhibitor selectivity panel (Human antagonist intracellular Ca2+ fluorescence assay)) EUB0000102c HTR3A. In kind it is cell-based.
Assay [5] has as its target 5-hydroxytryptamine receptor 1A (Homo sapiens, UniProt P08908). The assay is described as follows: Selectivity interaction (BET inhibitor selectivity panel (Human SPA binding assay)) EUB0000102c HTR1A.
Assay [6] deals with Potassium voltage-gated channel subfamily KQT member 1 (Homo sapiens, UniProt P51787). As to the kind of experiment: Selectivity interaction (BET inhibitor selectivity panel (Human Blocker ionworks assay)) EUB0000102c KCNQ1. (The patch-clamp technique gives a direct electrical read-out from membranes.)
Assay [7] deals with CREB-binding protein (Homo sapiens, UniProt Q92793). As to the kind of experiment: Selectivity interaction (Bromodomain panel (DSF assays, literature)) EUB0000102c CREBBP. For orientation: Differential scanning fluorimetry follows unfolding on heating by fluorescence.
Assay [8] has as its target Sodium-dependent noradrenaline transporter (Homo sapiens, UniProt P23975). As to the kind of experiment: Selectivity interaction (BET inhibitor selectivity panel (Human SPA binding assay)) EUB0000102c SLC6A2.
The target of assay [9] is Potassium voltage-gated channel subfamily E member 1 (Homo sapiens, UniProt P15382). The assay is described as follows: Selectivity interaction (BET inhibitor selectivity panel (Human Blocker ionworks assay)) EUB0000102c KCNE1.
The target of assay [10] is Microtubule-associated serine/threonine-protein kinase 1 (Homo sapiens) (UniProt Q9Y2H9). As to the kind of experiment: Selectivity interaction (KinomeScan (DiscoverX)) EUB0001877a MAST1. The following applies: at 1 µM.

Structures are written as SMILES.

5-hydroxytryptamine receptor 3A, sequence (P46098 whole entry): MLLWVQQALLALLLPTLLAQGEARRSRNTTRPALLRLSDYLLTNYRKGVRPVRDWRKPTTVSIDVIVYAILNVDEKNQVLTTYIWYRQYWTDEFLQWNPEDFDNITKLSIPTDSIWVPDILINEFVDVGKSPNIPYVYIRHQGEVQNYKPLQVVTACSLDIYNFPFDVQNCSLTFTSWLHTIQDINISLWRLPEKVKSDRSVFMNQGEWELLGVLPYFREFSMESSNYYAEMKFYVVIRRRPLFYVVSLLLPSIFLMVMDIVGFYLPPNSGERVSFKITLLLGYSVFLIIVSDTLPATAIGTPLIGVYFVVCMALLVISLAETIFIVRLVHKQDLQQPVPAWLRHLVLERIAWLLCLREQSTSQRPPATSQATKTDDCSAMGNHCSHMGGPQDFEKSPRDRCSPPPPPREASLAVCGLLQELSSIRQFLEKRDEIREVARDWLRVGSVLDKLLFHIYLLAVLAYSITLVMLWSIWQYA
Substance-K receptor (Homo sapiens), sequence (P21452 whole entry): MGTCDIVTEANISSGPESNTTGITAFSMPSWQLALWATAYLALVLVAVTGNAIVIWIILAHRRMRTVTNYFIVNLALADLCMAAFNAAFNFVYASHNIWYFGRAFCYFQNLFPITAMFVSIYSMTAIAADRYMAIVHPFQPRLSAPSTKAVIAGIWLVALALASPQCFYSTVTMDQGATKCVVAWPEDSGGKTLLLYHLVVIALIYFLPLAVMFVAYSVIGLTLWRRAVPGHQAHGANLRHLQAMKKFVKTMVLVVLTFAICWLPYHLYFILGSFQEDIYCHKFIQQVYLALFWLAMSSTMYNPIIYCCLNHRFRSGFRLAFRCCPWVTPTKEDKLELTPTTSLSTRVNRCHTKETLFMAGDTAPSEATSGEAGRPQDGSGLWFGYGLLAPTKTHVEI
5-hydroxytryptamine receptor 1A, sequence (P08908 whole entry): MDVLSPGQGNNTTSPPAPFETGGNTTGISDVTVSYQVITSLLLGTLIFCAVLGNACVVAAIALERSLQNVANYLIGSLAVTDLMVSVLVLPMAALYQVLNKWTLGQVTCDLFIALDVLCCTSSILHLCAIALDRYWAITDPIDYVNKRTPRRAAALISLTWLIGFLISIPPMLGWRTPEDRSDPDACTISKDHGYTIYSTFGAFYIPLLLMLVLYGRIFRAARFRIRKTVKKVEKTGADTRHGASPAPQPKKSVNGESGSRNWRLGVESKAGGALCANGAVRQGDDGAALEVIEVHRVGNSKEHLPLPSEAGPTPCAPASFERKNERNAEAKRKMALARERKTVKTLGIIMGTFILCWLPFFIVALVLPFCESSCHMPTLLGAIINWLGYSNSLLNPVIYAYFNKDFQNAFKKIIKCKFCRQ
Voltage-gated inwardly rectifying potassium channel KCNH3, sequence (Q9ULD8 whole entry): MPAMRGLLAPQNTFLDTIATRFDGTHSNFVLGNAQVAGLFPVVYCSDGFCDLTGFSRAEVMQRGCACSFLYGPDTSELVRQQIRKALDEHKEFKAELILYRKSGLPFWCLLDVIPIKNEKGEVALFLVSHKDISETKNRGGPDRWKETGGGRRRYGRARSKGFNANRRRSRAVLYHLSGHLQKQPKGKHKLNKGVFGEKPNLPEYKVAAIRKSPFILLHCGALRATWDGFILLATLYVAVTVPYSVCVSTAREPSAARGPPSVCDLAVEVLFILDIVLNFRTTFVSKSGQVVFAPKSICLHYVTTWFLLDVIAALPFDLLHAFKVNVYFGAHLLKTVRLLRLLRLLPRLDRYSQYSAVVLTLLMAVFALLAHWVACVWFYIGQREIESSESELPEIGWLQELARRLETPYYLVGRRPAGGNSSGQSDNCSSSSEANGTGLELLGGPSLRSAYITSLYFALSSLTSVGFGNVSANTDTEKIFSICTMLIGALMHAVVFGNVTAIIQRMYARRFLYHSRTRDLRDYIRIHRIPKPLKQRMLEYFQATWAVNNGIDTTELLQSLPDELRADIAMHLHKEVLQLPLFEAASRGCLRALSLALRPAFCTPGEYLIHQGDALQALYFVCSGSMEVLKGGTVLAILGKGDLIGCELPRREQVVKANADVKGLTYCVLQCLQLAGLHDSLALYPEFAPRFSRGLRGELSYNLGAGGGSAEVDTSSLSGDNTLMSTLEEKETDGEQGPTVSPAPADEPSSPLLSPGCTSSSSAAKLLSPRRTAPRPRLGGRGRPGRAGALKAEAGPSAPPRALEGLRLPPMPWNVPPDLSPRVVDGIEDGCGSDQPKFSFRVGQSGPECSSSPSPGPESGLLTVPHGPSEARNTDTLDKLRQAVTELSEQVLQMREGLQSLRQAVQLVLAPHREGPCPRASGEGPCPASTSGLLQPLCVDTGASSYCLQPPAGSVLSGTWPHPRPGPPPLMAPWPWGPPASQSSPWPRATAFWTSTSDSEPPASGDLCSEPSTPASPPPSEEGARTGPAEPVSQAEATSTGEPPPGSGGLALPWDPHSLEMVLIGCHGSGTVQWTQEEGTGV
CREB-binding protein, sequence (Q92793 2-2442 limits assumed): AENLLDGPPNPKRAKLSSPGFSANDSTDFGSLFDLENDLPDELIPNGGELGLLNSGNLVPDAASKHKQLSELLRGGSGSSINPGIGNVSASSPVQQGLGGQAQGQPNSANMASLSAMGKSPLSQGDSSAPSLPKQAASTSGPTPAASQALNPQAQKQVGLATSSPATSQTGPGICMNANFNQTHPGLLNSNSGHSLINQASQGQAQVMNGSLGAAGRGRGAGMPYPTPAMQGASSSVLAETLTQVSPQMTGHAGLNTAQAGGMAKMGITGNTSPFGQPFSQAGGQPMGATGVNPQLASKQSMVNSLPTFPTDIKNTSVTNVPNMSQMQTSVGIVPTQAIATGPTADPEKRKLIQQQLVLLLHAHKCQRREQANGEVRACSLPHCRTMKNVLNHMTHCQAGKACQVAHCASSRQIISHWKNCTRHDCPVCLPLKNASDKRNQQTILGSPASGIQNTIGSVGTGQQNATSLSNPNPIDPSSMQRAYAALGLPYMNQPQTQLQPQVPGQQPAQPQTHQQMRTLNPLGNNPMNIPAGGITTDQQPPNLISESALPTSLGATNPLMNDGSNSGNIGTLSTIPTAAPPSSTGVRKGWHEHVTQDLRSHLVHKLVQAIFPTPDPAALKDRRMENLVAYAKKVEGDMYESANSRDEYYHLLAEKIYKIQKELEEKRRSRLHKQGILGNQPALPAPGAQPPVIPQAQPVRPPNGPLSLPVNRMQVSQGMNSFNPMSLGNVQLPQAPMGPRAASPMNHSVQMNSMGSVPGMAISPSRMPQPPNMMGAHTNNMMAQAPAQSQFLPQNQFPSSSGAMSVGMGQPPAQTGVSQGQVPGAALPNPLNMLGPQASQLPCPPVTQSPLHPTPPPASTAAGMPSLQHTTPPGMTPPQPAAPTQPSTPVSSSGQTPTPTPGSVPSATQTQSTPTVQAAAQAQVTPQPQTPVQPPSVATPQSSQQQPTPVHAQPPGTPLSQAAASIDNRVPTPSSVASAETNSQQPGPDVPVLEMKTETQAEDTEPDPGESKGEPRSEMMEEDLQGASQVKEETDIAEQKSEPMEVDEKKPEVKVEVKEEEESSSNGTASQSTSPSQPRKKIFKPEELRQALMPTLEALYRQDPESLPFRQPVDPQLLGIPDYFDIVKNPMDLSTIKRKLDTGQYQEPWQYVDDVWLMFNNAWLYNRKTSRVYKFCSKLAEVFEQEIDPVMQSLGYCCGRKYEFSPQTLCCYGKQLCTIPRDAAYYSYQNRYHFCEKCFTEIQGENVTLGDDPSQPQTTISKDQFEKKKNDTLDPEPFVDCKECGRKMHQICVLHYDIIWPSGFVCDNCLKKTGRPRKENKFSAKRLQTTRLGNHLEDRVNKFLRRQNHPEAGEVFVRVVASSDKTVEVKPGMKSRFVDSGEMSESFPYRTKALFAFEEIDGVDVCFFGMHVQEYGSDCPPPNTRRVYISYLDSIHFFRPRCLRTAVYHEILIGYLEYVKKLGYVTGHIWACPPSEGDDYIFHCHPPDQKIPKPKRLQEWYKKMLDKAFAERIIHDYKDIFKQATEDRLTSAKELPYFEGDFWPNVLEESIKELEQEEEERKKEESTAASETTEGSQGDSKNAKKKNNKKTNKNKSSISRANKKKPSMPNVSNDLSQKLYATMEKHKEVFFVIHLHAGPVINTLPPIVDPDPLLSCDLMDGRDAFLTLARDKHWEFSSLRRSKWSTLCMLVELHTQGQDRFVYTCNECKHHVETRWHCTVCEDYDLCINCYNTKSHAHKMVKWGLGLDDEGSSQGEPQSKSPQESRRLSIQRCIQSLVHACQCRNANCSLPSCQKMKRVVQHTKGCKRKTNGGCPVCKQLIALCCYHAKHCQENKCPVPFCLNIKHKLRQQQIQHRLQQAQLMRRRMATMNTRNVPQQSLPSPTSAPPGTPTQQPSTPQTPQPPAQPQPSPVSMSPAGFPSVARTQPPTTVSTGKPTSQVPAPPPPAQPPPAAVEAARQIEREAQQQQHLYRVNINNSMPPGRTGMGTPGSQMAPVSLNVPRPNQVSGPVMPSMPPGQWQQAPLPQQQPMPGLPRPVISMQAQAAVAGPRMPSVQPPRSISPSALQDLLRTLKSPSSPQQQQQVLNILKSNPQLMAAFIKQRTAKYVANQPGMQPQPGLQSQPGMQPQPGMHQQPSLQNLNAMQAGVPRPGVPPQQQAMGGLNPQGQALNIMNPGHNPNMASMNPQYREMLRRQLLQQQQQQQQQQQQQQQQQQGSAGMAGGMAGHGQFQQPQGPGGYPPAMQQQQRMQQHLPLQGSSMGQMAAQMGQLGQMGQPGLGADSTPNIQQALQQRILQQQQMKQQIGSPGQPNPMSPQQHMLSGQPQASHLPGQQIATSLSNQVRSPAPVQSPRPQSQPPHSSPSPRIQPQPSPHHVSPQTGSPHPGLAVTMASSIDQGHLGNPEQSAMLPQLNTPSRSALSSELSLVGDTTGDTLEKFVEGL

In general, IC50 refers to the concentration that gives 50% inhibition. Regarding `COc1cc2c(cc1-c1c(C)noc1C)ncc1[nH]c(=O)n([C@H](C)c3ccccn3)c12`, the 50% inhibitory concentration (IC50) in [1] is 1.26 µM; in [2], 40 µM; in assay [4], > 50 µM; in assay [5] it was > 100 µM; in assay [6], > 25 µM; in [8], > 100 µM. Also, the IC50 in assay [9] is > 25 µM. The compound also had a % of inhibition in assay [3] of 48%. Also, the dTM in [7] is < 3 K.
`Nc1ncc2c(n1)-c1c([nH]c3ccc(C4CC4)cc13)CCCC2` returned a % of control in [10] of 32%.
